Measurements from PubChem BioAssay AID624258 (Broad Institute, 2012).
Where “and” joins values, the source holds several entries; their conditions need not be identical. Equal entries are not always repeated. Calls of active or inactive are those of the source. How the calls were made is not given here.

Experiment: Yeast SKN7 toxicity growth rescue counterscreen, Saccharomyces cerevisiae, plate reader, dose confirmatory (AID 624258);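 further: growth read after three days of incubation at 30 °C; 0% = median of neutral control wells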
Conditions: S. cerevisiae SKN7-toxicity growth rescue, plate reader

SMILES | growth rescue activity (at 19.5 µM (top of the series)) | growth rescue activity (at 6.8 µM (top of the series))
N#Cc1c(-c2ccc(Cl)cc2)nc2n(c1=O)CCCS2 | 35.4% (inactive) | –
Clc1nc(-c2ccccn2)nc2scc(-c3ccccc3)c12 | -76.2% (inactive) | –
CC(C)=CCc1c(O)ccc(C(=O)Cc2ccccc2)c1O | -92.2% (inactive) | –
COc1ccc(C(=O)On2c(-c3ccc(Br)cc3)nc3ccccc3c2=O)cc1 | -5.26% (inactive) | –
CCCOc1ccc2ccccc2c1/C=C1\SC(=O)NC1=O | -39.3% (inactive) | –
CCOC(=O)c1cnc(-n2nc(C)cc2C)nc1NC1CCCC1 | -62% (inactive) | –
Clc1ccc(C(Cn2ccnc2)OCc2c(Cl)cccc2Cl)c(Cl)c1 (stereo not given) | -69.1% (inactive) | –
Cc1ccc(S(=O)(=O)/N=C2/C=C(C3C(=O)CC(C)(C)CC3=O)C(=O)c3ccccc32)cc1 | 18.5% (inactive) | –
O=S(=O)(Nc1ccc(-n2cccc2)cc1)c1ccc(Cl)c(Cl)c1 | -92.1% (inactive) | –
CCN1/C(=C/c2sc(-c3ccccc3C)c[n+]2C)Sc2ccccc21 | -60.6% (inactive) | –
O=C(Nc1cccc(C(F)(F)F)c1)c1cccnc1NCCc1ccccc1 | -54.3% (inactive) | –
CCCCC(=O)NC(c1ccco1)c1cc(Cl)c2cccnc2c1O (stereo not given) | -45% (inactive) | –
O=[N+]([O-])c1ccc2c(c1)Cc1cc(O)ccc1-2 | 4.71% (inactive) | –
COC(OC)c1ccc(C#N)c(SCc2ccccc2)n1 | -28.8% (inactive) | –
CCCCCC1CCC(c2n[nH]c(=S)n2C)CC1 (stereo not given) | -58.3% (inactive) | –
CN(c1ccccc1)c1nc(N2CCCC2)nc(-n2ccnc2)n1 | -4.75% (inactive) | –
CCc1c(C2(O)CCCCC2)[nH]c2ccc(C(F)(F)F)cc12 | – | 85.9% (inactive)
CCC(C)c1ccc(NC(=S)NCCn2cc(Br)cn2)cc1 (stereo not given) | -33.1% (inactive) | –
O=C(N/N=C/c1cc(Br)cc(Cl)c1O)c1ccc2c(c1)OCO2 | -36.6% (inactive) | –
COc1ccc2c(c1)OC[C@H]1[C@H]2N2C(=O)c3cc(C)ccc3NC(=O)[C@@]2(C)[C@H]1c1ccccc1 | 122% (inactive) | –
CCC(Oc1ccc(Br)cc1Cl)C(=O)Nc1nnc(C2CC2)s1 (stereo not given) | -50.3% (inactive) | –
CCCC(=O)NC(c1ccc(N(C)C)cc1)c1ccc2cccnc2c1O (stereo not given) | -7.33% (inactive) | –
CCCCCCSc1ccc(-c2nc3ccccn3c2NCCCC)cc1 | -84.3% (inactive) | –
Cc1ccc(Nc2cc(C)nn2-c2nc(C)cc(C)n2)cc1 | -73.3% (inactive) | –

SMILES | growth rescue activity (at 19.5 µM (top of the series)) | growth rescue activity (at 6.8 µM (top of the series))
Oc1cccc(/C=N/N(Cc2ccccc2)c2ccccc2)c1 | -91.5% (inactive) | –
N#Cc1c(-c2ccc(Cl)cc2)n(O)c2ccccc12 | -88.7% (inactive) | –
Cc1csc(NC(=O)C(C)Oc2ccc(Cl)cc2C)n1 (stereo not given) | 10.9% (inactive) | –
Oc1c(Cl)cc(Cl)cc1/C=N/NC(=S)NC1CC2C=CC1C2 (stereo not given) | -42.5% (inactive) | –
COC(=O)/C(=C/Nc1ccc(O)cc1)[N+](=O)[O-] | -10% (inactive) | –
O=S(=O)(NCCc1csc(-c2cccnc2)n1)c1ccc(Cl)s1 | -65.2% (inactive) | –
Oc1c(C(Nc2cccc(C(F)(F)F)c2)c2ccncc2)ccc2cccnc12 (stereo not given) | -60.6% (inactive) | –
Nc1ncnc(Sc2ccccc2)c1[N+](=O)[O-] | 21.4% (inactive) | –
Cc1ccsc1/C=C/c1ccc2cccc(O)c2n1 | -50.7% (inactive) | –
CC(=O)N(c1ccccc1)c1ccc([N+](=O)[O-])cc1[N+](=O)[O-] | -25.3% (inactive) | –
C=CCc1cccc(C=Nc2cc(Br)ccc2O)c1O | -45% (inactive) | –
COc1ccc(N/N=C(\C#N)C(N)=O)cc1 | -58.5% (inactive) | –
Cc1cc(SC#N)cc(C)c1NC(=O)CCl | -87% (inactive) | –
CCCCCCCc1ccc(-c2ccc(O)cc2)nc1 | -79.8% (inactive) | –
CCCCc1ccc(-n2c(Cc3cccs3)n[nH]c2=S)cc1 | -23.9% (inactive) | –
O=C(CSc1ccc(-c2ccccn2)nn1)NCc1ccc(F)cc1 | 1.05% (inactive) | –
CCN(CC)S(=O)(=O)c1ccc(N=NC2=C(O)CC(C)(C)CC2=O)cc1 | -10.4% (inactive) | –
CCC(CC)C(=O)N1CCN(c2cccc(C)c2C)CC1 | -12.1% (inactive) | –
N#Cc1c(-c2ccccc2)nc2n(c1=O)CCS2 | 27.6% (inactive) | –
CC[n+]1c(/C=C/C=C/c2ccc(N(C)C)cc2)sc2ccccc21 | -38.5% (inactive) | –
CC(C)(C)c1ccc(S(=O)(=O)/N=C2\C=C(NS(=O)(=O)c3ccccc3)C(=O)c3ccccc32)cc1 | -5.91% (inactive) | –
Cc1cc(NS(=O)(=O)c2ccc(C3CCCCC3)cc2)no1 | -38.7% (inactive) | –
CCCOc1ccc(S(=O)(=O)n2cc(F)c(=O)[nH]c2=O)cc1 | 0% (inactive) | –
S=c1[nH]nc(-c2ccco2)n1/N=C/c1ccc(Br)s1 | 30.2% (inactive) | –

SMILES | growth rescue activity (at 19.5 µM (top of the series)) | growth rescue activity (at 6.8 µM (top of the series))
CCOc1ccc(S(=O)(=O)n2cc(F)c(=O)[nH]c2=O)cc1 | -4.21% (inactive) | –
O=S(=O)(c1ccc(Oc2ccc(Br)cc2)cc1)N1CCOCC1 | 9.57% (inactive) | –
CCCCCCn1c(=O)c(C(=O)Nc2ncccc2C)c(O)c2ccccc21 | -12.8% (inactive) | –
O=CC1=C(c2ccccc2)Oc2ccccc2O1 | -88.1% (inactive) | –
Clc1ccc(C2=NCCN2)cc1 | -65.4% (inactive) | –
C/C(=N\NC(=O)COc1ccccc1-c1ccccc1)c1ccccn1 | -11.5% (inactive) | –
O=C(c1ccccc1)c1coc2c1C(=O)c1ccccc1C2=O | 18.2% (inactive) | –
O=C(O)c1ccccc1NC(c1ccccc1)c1ccc2cccnc2c1O (stereo not given) | -59.1% (inactive) | –
Cc1ccc(O)c(-c2cc(-c3ccccc3C)[nH]n2)c1 | -92.1% (inactive) | –
Cc1cccc(N=Cc2[nH]c3ccc(Br)c(Cl)c3c2O)c1 | -14.7% (inactive) | –
CC1(OC(=O)CCc2ccccc2)C(=O)C=C2C=C(c3ccc(C#N)cc3)N(Cc3ccco3)C=C2C1=O (stereo not given) | 3.67% (inactive) | –
O=c1c(O)c(-c2ccccc2)oc2ccccc12 | -14.5% (inactive) | –
FC(F)(F)Oc1ccc(NC(=S)Nc2ccc(OC(F)(F)F)cc2)cc1 | 26% (inactive) | –
O=C(c1cc([N+](=O)[O-])cc([N+](=O)[O-])c1)N(Cc1nnc(-c2ccccc2Cl)o1)C1CC1 | – | -38% (inactive)
CCC(NC(=S)NCc1ccc(F)cc1)c1ccc(C(C)C)cc1 (stereo not given) | 41.2% (inactive) | –
COC(=O)C1=C(C)NC(C)=C(C(=O)OCC(C)C)C1c1ccccc1[N+](=O)[O-] (stereo not given) | -47.9% (inactive) | –
Cn1c(N=Nc2ccccc2)nc2ccccc21 | -85.7% (inactive) | –
Cc1cc(Cl)ccc1C(=O)C1CCCN(C(=O)c2cncs2)C1 (stereo not given) | -54.3% (inactive) | –
Cc1cccc(/C=N/NC(=O)C(C)Nc2cccc3ccccc23)n1 (stereo not given) | -1.71% (inactive) | –
CC(C)(C)n1nc(Cc2cccc3ccccc23)c2c(N)ncnc21 | – | -49.1% (inactive)
CCCCn1c(=O)c(C(=O)NCc2ccncc2)c(O)c2ccccc21 | 33% (inactive) | –
O=C(c1cccs1)c1no[n+]([O-])c1C(=O)c1cccs1 | -87.1% (inactive) | –
CN(C)c1ccc(NC2=C(Cl)C(=O)c3ccccc3C2=O)cc1 | -12.8% (inactive) | –
CCc1cc(SC#N)cc(C)c1NC(=O)CCl | – | -50.8% (inactive)

SMILES | growth rescue activity (at 19.5 µM (top of the series)) | growth rescue activity (at 6.8 µM (top of the series))
CCOC(=O)c1c2c(n(-c3ccc(OC)cc3)c1C)C(=O)C(=O)c1ccccc1-2 | -68% (inactive) | –
O=C(NCc1ccccc1)c1ccc2nccnc2c1 | 17.6% (inactive) | –
C[n+]1c2cc(N)ccc2cc2ccc(N)cc21 | -24.4% (inactive) and -10% (inactive) | –
Cc1oc2c(c1C(=O)c1ccccc1)C(=O)C(=O)c1ccccc1-2 | 16.8% (inactive) | –
O=S(=O)(c1ccc(Cl)cc1)N1CCC2(CC1)OCCN2S(=O)(=O)c1cccs1 | -46.5% (inactive) | –
Cc1ccc(-n2ncc(Br)c(Br)c2=O)cc1 | 23.6% (inactive) | –
Clc1ccccc1CN(Cc1ccco1)Cc1nnnn1C1CCCC1 | -4.89% (inactive) | –
O=C(Oc1c(-c2ccccc2)c(=O)n2c3c(cccc13)CC2)c1cccc([N+](=O)[O-])c1 | -37.6% (inactive) | –
COc1cccc2c1C(=O)c1c(O)c3c(c(O)c1C2=O)CC(O)(C(C)=NNC(=O)c1ccc(Cl)c(Cl)c1)CC3OC1CC(N)C(O)C(C)O1 (stereo not given) | 23.8% (inactive) | –
Cc1cc(C(F)(F)F)n2[nH]c(=O)c(N=Nc3ccccc3)c2n1 | -58.6% (inactive) | –
O=C(c1ccccc1)c1ccc(Cn2cc(-c3ccccc3)nn2)cc1 | 19.2% (inactive) | –
COC(=O)Cc1cc(=O)n(-c2ccccc2)[nH]1 | 9.07% (inactive) | –
CN(C)c1nc(SCc2ccc(Cl)cc2)nc2c1CCCC2 | -65.9% (inactive) | –
CCOC(=O)c1c(C)[nH]c2c1-c1ccccc1C(=O)C2=O | -17.4% (inactive) | –
COc1cc2c(cc1OC)C(C)N(C(=O)C1COc3ccccc3O1)CC2 (stereo not given) | 14.6% (inactive) | –
CCOC(=O)C1=C(C)NC(=O)C1CC(=O)O (stereo not given) | -16.2% (inactive) | –
Oc1c(Br)cc(-c2ccccc2)cc1Br | -84.6% (inactive) | –
CCCOc1ccc(CSCCNC(=S)Nc2ccccc2)cc1 | 22% (inactive) | –
Cc1ccc(NC(=O)C2COc3ccccc3O2)cc1S(=O)(=O)N1CCCCC1 (stereo not given) | 35.9% (inactive) | –
Cc1ccc(Cl)cc1NC1=C/C(=N\S(=O)(=O)c2cccs2)c2ccccc2C1=O | -24.9% (inactive) | –
Cc1cccc(Oc2cnn(C(C)(C)C)c(=O)c2Cl)c1 | 1.29% (inactive) | –
O=S1OC(c2ccccc2)c2cc(Cl)ccc21 (stereo not given) | -14.3% (inactive) | –
Cc1ccc(NC(=S)c2nc3ccccc3[nH]2)c(C)c1 | 32.1% (inactive) | –
